Assay results published in ChEMBL document CHEMBL1201862, “PubChem BioAssay data set” (2004).
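1) Cells in 96-well plates. 2) Compound, 48 h, 5 concentrations. 3) Linear interpolation between surrounding doses. 4) Unreached endpoint = highest concentration. At the GI50, growth is halved.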 Activity calls are given as the source filed them. No stated cut-off is given here; in the data, active = GI50 up to about 1.1 µM and inactive = higher.

Columns and labels:
Experiment in all cases: NCI-60 cell line screen, 48 h
OVCAR-4 = test system: OVCAR-4
HOP-62 = test system: HOP-62
LOX IMVI = test system: LOX IMVI
HCC 2998 = test system: HCC 2998
HCT-116 = test system: HCT-116
SF-268 = test system: SF-268
CAKI-1 = test system: CAKI-1
HT-29 = test system: HT-29
NCI-H460 = test system: NCI-H460
SN12C = test system: SN12C
DU-145 = test system: DU-145
Hs-578T = test system: Hs-578T
SNB-75 = test system: SNB-75
MOLT-4 = test system: MOLT-4
PC-3 = test system: PC-3
A549 = test system: A549
UACC-257 = test system: UACC-257
OVCAR-5 = test system: OVCAR-5
IGROV-1 = test system: IGROV-1
KM12 = test system: KM12
SK-OV-3 = test system: SK-OV-3
Malme-3M = test system: Malme-3M
OVCAR-8 = test system: OVCAR-8
SF-295 = test system: SF-295
BT-549 = test system: BT-549
MCF7 = test system: MCF7
UO-31 = test system: UO-31
NCI-H522 = test system: NCI-H522
SK-MEL-28 = test system: SK-MEL-28
MDA-N = test system: MDA-N
SW-620 = test system: SW-620
U-251 = test system: U-251
MDA-MB-231 = test system: MDA-MB-231
SF-539 = test system: SF-539
EKVX = test system: EKVX
TK-10 = test system: TK-10
MDA-MB-435 = test system: MDA-MB-435
K562 = test system: K562
SK-MEL-2 = test system: SK-MEL-2
UACC-62 = test system: UACC-62
T47D = test system: T47D
COLO 205 = test system: COLO 205
ACHN = test system: ACHN
SK-MEL-5 = test system: SK-MEL-5
HOP-92 = test system: HOP-92
NCI/ADR-RES = test system: NCI/ADR-RES
NCI-H226 = test system: NCI-H226
HCT-15 = test system: HCT-15
786-0 = test system: 786-0
OVCAR-3 = test system: OVCAR-3
NCI-H23 = test system: NCI-H23
CCRF-CEM = test system: CCRF-CEM
M14 = test system: M14
SNB-19 = test system: SNB-19
RXF 393 = test system: RXF 393
A498 = test system: A498
HL-60 = test system: HL-60
RPMI-8226 = test system: RPMI-8226
SR = test system: SR

Measured: GI50

COC(=O)c1ccccc1CC1Cc2cccc(C)c2C1=O (stereo unspecified)
inactive: OVCAR-4 27.7 µM | HOP-62 > 100 µM | LOX IMVI 22.4 µM | HCC 2998 40.3 µM | HCT-116 23.8 µM | SF-268 37.8 µM | CAKI-1 80.2 µM | HT-29 22.9 µM | NCI-H460 47.5 µM | SN12C 50.5 µM | DU-145 96.4 µM | Hs-578T 38.3 µM | SNB-75 22.7 µM | MOLT-4 19.9 µM | PC-3 24 µM | A549 51.8 µM | UACC-257 34 µM | OVCAR-5 57.5 µM | IGROV-1 46.5 µM | KM12 27 µM | SK-OV-3 38.9 µM | Malme-3M 19.2 µM | OVCAR-8 35 µM | SF-295 38.9 µM | BT-549 30 µM | MCF7 26.6 µM | UO-31 22.7 µM | NCI-H522 24.8 µM | SK-MEL-28 32.5 µM | MDA-N 36.1 µM | SW-620 42.4 µM | U-251 33 µM | MDA-MB-231 51.5 µM | SF-539 89.7 µM | EKVX 11.7 µM | TK-10 21.3 µM | MDA-MB-435 23.3 µM | K562 22.3 µM | SK-MEL-2 21.8 µM | UACC-62 30.5 µM | T47D 25.8 µM | COLO 205 20.3 µM | ACHN 34.8 µM | SK-MEL-5 21.4 µM | HOP-92 23.8 µM | NCI/ADR-RES 32.7 µM | NCI-H226 27 µM | 786-0 47.5 µM | OVCAR-3 33.7 µM | NCI-H23 57.5 µM | CCRF-CEM 36.8 µM | M14 34.8 µM | SNB-19 52.5 µM | RXF 393 24.7 µM
24 µM: HCT-15

CC(C)C1OC2(C)OC(=N)C1(C#N)C(C#N)(C#N)C2C (stereo unspecified)
inactive: LOX IMVI 19 µM | HCC 2998 13.7 µM | HCT-116 27.2 µM | SF-268 20.1 µM | CAKI-1 10.9 µM | HT-29 16.3 µM | NCI-H460 15.8 µM | SN12C 13.9 µM | DU-145 28.4 µM | Hs-578T 24.3 µM | SNB-75 32.1 µM | MOLT-4 30.1 µM | PC-3 24.6 µM | A549 > 100 µM | UACC-257 28.5 µM | OVCAR-5 25.6 µM | IGROV-1 > 10 µM | KM12 52 µM | SK-OV-3 > 100 µM | Malme-3M 19.6 µM | OVCAR-8 25.8 µM | SF-295 > 100 µM | BT-549 51.6 µM | MCF7 18.7 µM | UO-31 45.7 µM | SK-MEL-28 37.1 µM | A498 67.5 µM | MDA-N 15.2 µM | SW-620 26.6 µM | U-251 24.2 µM | MDA-MB-231 15.4 µM | SF-539 24.6 µM | EKVX 18.7 µM | TK-10 47.1 µM | MDA-MB-435 37.8 µM | HL-60 15.9 µM | K562 30 µM | SK-MEL-2 17.6 µM | UACC-62 27.6 µM | T47D 15 µM | COLO 205 14.5 µM | ACHN 36 µM | SK-MEL-5 13.7 µM | HOP-92 17.7 µM | NCI/ADR-RES 54.8 µM | NCI-H226 > 100 µM | 786-0 19.4 µM | OVCAR-3 17.7 µM | NCI-H23 30.6 µM | CCRF-CEM 16 µM | M14 14.6 µM | SNB-19 > 10 µM | RXF 393 36.2 µM
12.8 µM: HCT-15

COc1ccc(-c2c(C(C)=O)c(C)n(C3OC(CO)C(O)C(O)C3O)c(=S)c2C#N)cc1 (stereo unspecified)
> 100 µM: HCT-15
inactive: OVCAR-4 95.5 µM | HOP-62 > 100 µM | LOX IMVI 45.5 µM | HCT-116 86.9 µM | SF-268 > 100 µM | RPMI-8226 83.6 µM | CAKI-1 > 100 µM | HT-29 > 100 µM | NCI-H460 > 100 µM | SN12C 50.6 µM | DU-145 > 100 µM | SR 48.8 µM | Hs-578T 98.2 µM | SNB-75 80.9 µM | MOLT-4 27.7 µM | PC-3 47 µM | A549 > 100 µM | UACC-257 > 100 µM | OVCAR-5 > 100 µM | IGROV-1 > 100 µM | KM12 90.6 µM | SK-OV-3 > 100 µM | Malme-3M 70.5 µM | OVCAR-8 58.2 µM | SF-295 72.9 µM | BT-549 > 100 µM | MCF7 > 100 µM | UO-31 > 100 µM | SK-MEL-28 44.6 µM | MDA-N 71.6 µM | SW-620 78.5 µM | U-251 47 µM | MDA-MB-231 > 100 µM | SF-539 36.1 µM | EKVX 55.1 µM | TK-10 > 100 µM | MDA-MB-435 72.6 µM | HL-60 41 µM | K562 37.8 µM | UACC-62 28 µM | T47D 34.6 µM | COLO 205 > 100 µM | ACHN 80.2 µM | SK-MEL-5 48.8 µM | NCI/ADR-RES 93.5 µM | OVCAR-3 > 100 µM | NCI-H23 68.1 µM | CCRF-CEM 38.3 µM | M14 60.1 µM | SNB-19 19.5 µM | RXF 393 73.1 µM

Fc1ccc(Nc2nnc(-c3ccccn3)s2)cc1
inactive: OVCAR-4 > 100 µM | HOP-62 > 100 µM | LOX IMVI > 100 µM | HCT-116 > 100 µM | SF-268 > 100 µM | RPMI-8226 > 100 µM | CAKI-1 > 100 µM | HT-29 > 100 µM | NCI-H460 > 100 µM | SN12C > 100 µM | DU-145 > 100 µM | Hs-578T > 100 µM | MOLT-4 > 100 µM | PC-3 > 100 µM | A549 > 100 µM | UACC-257 > 100 µM | OVCAR-5 > 100 µM | IGROV-1 > 100 µM | KM12 > 100 µM | SK-OV-3 > 100 µM | Malme-3M > 100 µM | OVCAR-8 > 100 µM | SF-295 > 100 µM | BT-549 > 100 µM | MCF7 3.47 µM | NCI-H522 > 100 µM | SK-MEL-28 > 100 µM | A498 > 100 µM | MDA-N > 100 µM | SW-620 > 100 µM | U-251 > 100 µM | MDA-MB-231 > 100 µM | SF-539 > 100 µM | EKVX > 100 µM | TK-10 > 100 µM | MDA-MB-435 > 100 µM | HL-60 > 100 µM | SK-MEL-2 > 100 µM | UACC-62 > 100 µM | T47D 5.22 µM | COLO 205 > 100 µM | ACHN > 100 µM | SK-MEL-5 > 100 µM | HOP-92 > 100 µM | NCI/ADR-RES > 100 µM | 786-0 > 100 µM | OVCAR-3 > 100 µM | NCI-H23 > 100 µM | CCRF-CEM > 100 µM | M14 > 100 µM | SNB-19 > 100 µM | RXF 393 > 100 µM
> 100 µM: HCT-15

COC(=O)/C=C\C(C#N)(C#N)/N=C/c1ccc(Br)s1
2.18 µM: HCT-15
inactive: OVCAR-4 6.61 µM | HOP-62 17.6 µM | LOX IMVI 2.16 µM | HCC 2998 19.1 µM | HCT-116 4.89 µM | SF-268 18.5 µM | RPMI-8226 2.32 µM | CAKI-1 2.45 µM | HT-29 2.35 µM | NCI-H460 20.8 µM | SN12C 15.2 µM | DU-145 10.7 µM | Hs-578T 25.3 µM | SNB-75 15.2 µM | MOLT-4 2.07 µM | PC-3 13.4 µM | A549 21.2 µM | UACC-257 15.1 µM | OVCAR-5 9.64 µM | IGROV-1 14.9 µM | KM12 16.3 µM | SK-OV-3 19.2 µM | Malme-3M 1.77 µM | OVCAR-8 3.98 µM | SF-295 17.7 µM | BT-549 4.79 µM | MCF7 2.47 µM | UO-31 2.39 µM | SK-MEL-28 16.1 µM | A498 17.7 µM | MDA-N 7.98 µM | SW-620 2.07 µM | U-251 16 µM | MDA-MB-231 2.18 µM | EKVX 12.2 µM | TK-10 2.38 µM | MDA-MB-435 5.56 µM | HL-60 1.85 µM | K562 4.3 µM | SK-MEL-2 17.3 µM | UACC-62 10.7 µM | T47D 3.52 µM | COLO 205 2.31 µM | ACHN 2.29 µM | SK-MEL-5 11.9 µM | HOP-92 1.93 µM | NCI/ADR-RES 18.6 µM | NCI-H226 3.18 µM | 786-0 5.42 µM | OVCAR-3 11 µM | NCI-H23 9.2 µM | M14 3.1 µM | SNB-19 14.8 µM | RXF 393 2.03 µM
active: NCI-H522 1.07 µM | CCRF-CEM 0.853 µM
